We go through 45 molecules from BindingDB's records for doi:10.7270/Q2KH0KWR (Burnham Center For Chemical Genomics, 2012).

The assay has as its target T1, Tyrosine-protein phosphatase non-receptor type 5 (Homo sapiens, UniProt P54829).
T1 sequence (P54829 whole entry): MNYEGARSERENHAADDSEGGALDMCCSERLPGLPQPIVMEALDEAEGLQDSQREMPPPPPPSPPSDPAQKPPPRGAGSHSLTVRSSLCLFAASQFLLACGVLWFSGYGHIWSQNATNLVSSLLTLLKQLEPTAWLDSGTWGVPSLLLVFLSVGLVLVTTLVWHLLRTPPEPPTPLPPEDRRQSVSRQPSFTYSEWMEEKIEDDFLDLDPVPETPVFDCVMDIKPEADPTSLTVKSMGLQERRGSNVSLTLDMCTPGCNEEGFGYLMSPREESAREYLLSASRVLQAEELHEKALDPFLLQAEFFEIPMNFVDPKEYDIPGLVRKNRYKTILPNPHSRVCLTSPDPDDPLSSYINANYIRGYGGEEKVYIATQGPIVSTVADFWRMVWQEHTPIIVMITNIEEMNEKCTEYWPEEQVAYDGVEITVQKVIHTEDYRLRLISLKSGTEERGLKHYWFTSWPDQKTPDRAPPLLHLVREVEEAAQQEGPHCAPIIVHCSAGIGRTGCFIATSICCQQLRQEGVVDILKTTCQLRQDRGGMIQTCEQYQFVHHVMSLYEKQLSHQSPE
Nature of the assay: PTPN5 inhibition measured colorimetrically – biochemical, colorimetric absorbance, orthogonal assay for STEP inhibitor project, dose response (AID 624207).

[1] abbreviates: inactive by the depositor's call.

SMILES strings stand for the structures. Bounds are passed on as bounds.

As for `Nc1ccc2c(O)cc(S(=O)(=O)O)cc2c1`, the IC50 was more than 80 µM.

`O=S(=O)(O)c1cc(O)c2cc(Nc3ccccc3)ccc2c1` yielded an IC50 under setting [1] of 24.1 µM. In other words, the double-digit micromolar range. `S=C1N=C(C23CC4CC(CC(C4)C2)C3)CC(c2ccc3c(c2)OCO3)N1` (stereo not given) came in with an IC50 of more than 80 µM. Under setting [1], `O=S(=O)(Nc1ccc(Cl)cc1)c1ccc(N2CCOCC2)c(NC(=S)NCCN2CCOCC2)c1` came in with an IC50 of 21.3 µM. Still for that read-out and setting: then `O=C(CCc1ccccc1)NNC(=O)c1ccc(NC(=O)c2ccccc2)cc1`, with 37.9 µM; and `COc1cccc(Nc2nn3c(=O)c4ccccc4nc3s2)c1`, with 58.2 µM. Regarding `CCc1ccc(NC(=O)Cc2cn(C)c3ccccc23)cc1`, the IC50 was more than 80 µM. Molecule `CCC(CC)c1nnc(NC(=O)c2cc(C(=O)OC)cc([N+](=O)[O-])c2)s1` yielded a concentration for half-maximal inhibition (IC50) under setting [1] of 21.8 µM. This lies in the double-digit micromolar range. In turn, `Cc1ccc(-c2nc3ncccc3o2)cc1NC(=O)CC(C)C` displayed an IC50 of more than 80 µM.

In turn, `O=C(N/N=C/c1ccncc1)c1cccc(S(=O)(=O)Nc2ccc(Cl)cc2)c1` displayed an IC50 of 19.7 µM.

With `COc1cc(NC(=S)N2CCN(C)CC2)c(OC)cc1Cl`, the IC50 was more than 80 µM. With `CC(=O)N1CCC(N(CCN2CCOCC2)C(=S)Nc2ccc(C)cc2)CC1`, the IC50 was more than 80 µM. `CN1CCC2(CC1)N=C(c1ccc(F)cc1)C(=S)N2` had an IC50 under setting [1] of 71.7 µM. The molecule `Cc1ccc(N=C(S)N(CCN(C)C)Cc2cccs2)c(C)c1` had an IC50 under setting [1] of 56 µM.

As for `S=C(NCCCN1CCOCC1)Nc1ccc(-c2nc3ccccc3[nH]2)cc1`, the IC50 under setting [1] stood at 79.6 µM. Turning to `COc1ccc(NC(=O)c2cc(=O)c3ccccc3o2)cc1Cl`, the half-inhibitory concentration (IC50) is more than 80 µM. Still for that read-out and setting: then `O=C1NN(c2cccc(Br)c2)C(=O)/C1=C\c1ccc(N2CCOCC2)cc1`, with more than 80 µM; and `Cc1ccc(S(=O)(=O)c2cnc3ccc(Cl)cc3c2O)cc1`, with more than 80 µM; and `O=C(C=Cc1ccc(Cl)cc1)NC(=S)Nc1ccc(C(=O)O)cc1`, with more than 80 µM. On the same count and under the same terms, with `CC(/N=N/c1ccc(S(N)(=O)=O)cc1[N+](=O)[O-])c1cccs1` (stereo not given) the figure was more than 80 µM.

The molecule `CC(=O)c1ccc(S(=O)(=O)Nc2cccc(-n3cnnn3)c2)cc1` gave an IC50 of more than 80 µM. Molecule `NN=C1C(Cl)=C(Cl)C(Cl)=C1Cl` returned an IC50 of more than 80 µM.

As for `Cc1ccc(S(=O)(=O)N2CCCCC2)cc1NC(=O)c1ccc(=O)[nH]c1`, the IC50 was more than 80 µM.

`NC(=O)C1(N2CCCCC2)CCN(C(=S)Nc2ccc(S(N)(=O)=O)cc2)CC1` [1'-({[4-(aminosulfonyl)phenyl]amino}carbonothioyl)-1,4'-bipiperidine-4'-carboxamide] showed an IC50 under setting [1] of 25.9 µM. Under setting [1], `S=C(NCCc1ccccc1)Nc1c(Cl)cccc1Cl` [1-(2,6-dichlorophenyl)-3-(2-phenylethyl)thiourea] yielded an IC50 of 41.2 µM.

The molecule `COc1ccc(NC(S)=NCCN2CCC(C)CC2)cc1Cl` [1-(3-chloro-4-methoxyphenyl)-3-[2-(4-methyl-1-piperidinyl)ethyl]thiourea] had an IC50 of 18.2 µM. Consider `COc1ccc(NC(=S)NCCCN2CCCC2)cc1Cl` [1-(3-chloro-4-methoxyphenyl)-3-[3-(1-pyrrolidinyl)propyl]thiourea], for which half-maximal inhibition under setting [1] (IC50) was put at 31.1 µM.

Molecule `COCCCN(C(S)=Nc1c(C)cc(C)cc1C)C(C)c1ccccn1` (stereo not given) [1-(3-methoxypropyl)-1-[1-(2-pyridinyl)ethyl]-3-(2,4,6-trimethylphenyl)thiourea] showed an IC50 of more than 80 µM. Same read-out and setting: then `CC(C)OCCCN=C(S)Nc1ccc(S(N)(=O)=O)cc1` [1-(3-propan-2-yloxypropyl)-3-(4-sulfamoylphenyl)thiourea], with more than 80 µM. In turn, `CN1CCN(C(=S)c2ccc(Br)cc2)CC1` [1-[(4-bromophenyl)carbonothioyl]-4-methylpiperazine] showed an IC50 under setting [1] of 42 µM. On the same count and under the same terms, with `Cc1nn(C)cc1C=NNC(=S)Nc1ccccc1` [1-[(E)-(1,3-dimethylpyrazol-4-yl)methylideneamino]-3-phenyl-thiourea] the figure was 57.9 µM. In turn, `Cc1cc(C)c(NC(S)=NCC2CCN(C(C)c3ccccc3)C2)c(C)c1` (stereo not given) [1-[[1-(1-phenylethyl)-3-pyrrolidinyl]methyl]-3-(2,4,6-trimethylphenyl)thiourea] displayed an IC50 of 12.1 µM. Same read-out and setting: with `Cc1c(C)n(C(=O)CSc2nc3ccccc3[nH]2)c2ccccc12` [2-(1H-benzimidazol-2-ylthio)-1-(2,3-dimethyl-1-indolyl)ethanone] the figure was more than 80 µM. For `CCCN(CC(=O)Nc1ccccc1OC)C(=O)Cc1ccc2c(c1)CCC2` [2-(2,3-dihydro-1H-inden-5-yl)-N-[2-[(2-methoxyphenyl)amino]-2-oxidanylidene-ethyl]-N-propyl-ethanamide], the IC50 under setting [1] was 57 µM. Under setting [1], `CCCc1cc(=O)oc2cc(OCC(=O)Nc3ccc(S(N)(=O)=O)cc3)ccc12` [2-(2-oxo-4-propylchromen-7-yl)oxy-N-(4-sulfamoylphenyl)acetamide] returned an IC50 of 30.6 µM. Against the preceding molecule, the IC50 is about 1.9-fold lower. The molecule `CCOc1cc(CN=Nc2nc(O)c(CC(=O)O)s2)ccc1OCc1ccc(Cl)cc1Cl` [2-[2-[(N''E)-N''-[4-(2,4-dichlorobenzyl)oxy-3-ethoxy-benzylidene]hydrazino]-4-keto-2-thiazolin-5-yl]acetic acid] showed an IC50 of more than 80 µM. Consider `O=C(O)c1ccc2c(c1)C(=O)N(c1cccc(-c3nc4ccccc4s3)c1)C2=O` [2-[3-(1,3-benzothiazol-2-yl)phenyl]-1,3-bis(oxidanylidene)isoindole-5-carboxylic acid], for which the IC50 is more than 80 µM. On the same count and under the same terms, with `CCN1CCN(C(=S)c2ccc(OCC(=O)NCc3ccccc3)cc2)CC1` [2-[4-(4-ethylpiperazin-1-yl)carbothioylphenoxy]-N-(phenylmethyl)ethanamide] the figure was more than 80 µM; with `CCc1ccc(NC2=NC(=O)C(=Cc3ccc(OCC(=O)O)cc3)S2)cc1` [2-[4-[(Z)-[2-(4-ethylanilino)-4-oxo-5-thiazolylidene]methyl]phenoxy]acetic acid], 37.1 µM. Molecule `Cc1c(CC(=O)O)c(=O)oc2c(C)c(OCc3ccccc3Br)ccc12` [2-[7-[(2-bromophenyl)methoxy]-4,8-dimethyl-2-oxochromen-3-yl]acetic acid] gave an IC50 under setting [1] of 26.3 µM. Molecule `Cc1cccc(Nc2nn3c(=O)c4ccccc4nc3s2)c1` [2-[(3-methylphenyl)amino]-5H-[1,3,4]thiadiazolo[2,3-b]quinazolin-5-one] displayed an IC50 of 8.34 µM. On the same count and under the same terms, then `Cc1ccc(-c2nc(NC(=O)CSc3cc(C)c4ccccc4n3)ns2)cc1` [2-[(4-methyl-2-quinolyl)thio]-N-[5-(p-tolyl)-1,2,4-thiadiazol-3-yl]acetamide], with more than 80 µM; and `COc1cc(/C=C2/SC(=S)N(CC(=O)O)C2=O)ccc1OCC(=O)Nc1ccc(C)c(C)c1` [2-[(5E)-5-[[4-[2-[(3,4-dimethylphenyl)amino]-2-oxidanylidene-ethoxy]-3-methoxy-phenyl]methylidene]-4-oxidanylidene-2-sulfanylidene-1,3-thiazolidin-3-yl]ethanoic acid], with more than 80 µM. With `CCCCCn1c(N)c(-c2nc3ccccc3o2)c2c([N+](=O)[O-])nn(C)c(=O)c21` [2-amino-1-amyl-3-(1,3-benzoxazol-2-yl)-6-methyl-4-nitro-pyrrolo[2,3-d]pyridazin-7-one], the IC50 is more than 80 µM. Molecule `Cc1ccc(-n2c(C)nc3oc4ccccc4c(=O)c3c2=O)cc1` [2-methyl-3-(4-methylphenyl)[1]benzopyrano[2,3-d]pyrimidine-4,5-dione] registered an IC50 under setting [1] of 76.5 µM.

The IC50 is the concentration at which inhibition is half-maximal. A lower IC50 goes with higher potency.
